Two compounds from patent US12329739B2, “Isoflavonoid compounds and methods for the treatment of cancer” (Aardvark Therapeutics, Inc., priority 2010, dated 2025) can be followed below.

For one assay, the system named is CP70. Description: MTT proliferation assay, CP70. It is filed as cell-based. To be noted: Table 2, Ovarian, CP70, 120 hrs of exposure. The procedure: (§1) Proliferation Assays. IC50 values were determined for each cell line. Cells were seeded in 96-well plates at an appropriate cell density as determined from growth kinetics analysis and cultured for 5 days in the absence and presence of the test compounds. Cell proliferation was assessed after the addition of 20 μl of 3-4,5 dimethylthiazol-2,5-diphenyl tetrazolium bromide (MTT, 5 mg/ml in PBS, Sigma) for 5 hrs at 37° C. according to manufacturer's instructions. IC50 values were calculated from semi-log plots of % of control proliferation on the y-axis against log dose on the x-axis.
(§2) Anti-proliferative Activity of Isoflavonoid Derivatives. IC50 values were determined for each cell line after 120 h of exposure.
In general terms: Tetrazolium dyes change colour on reduction, which living cells bring about.

The subject of another assay is MM2200. Description: MTT proliferation assay, MM2200. It is filed as cell-based. Particulars: Table 2, Melanoma, MM2200, 120 hrs of exposure. On the procedure:
as §1, §2
Activity data is provided is Table 2.

The subject of the next assay is PC3. Briefly: MTT proliferation assay, PC3. Type of assay: cell-based. Particulars: Table 2, Prostate, PC3, 120 hrs of exposure. On the procedure:
as §1, §2

In another assay the test system is A2058. Description: MTT proliferation assay, A2058. Particulars: Homo sapiens, A2058, 120 h, Table 2, Melanoma, A2058, 120 hrs of exposure. It is filed as cell-based. On the procedure: as §1, §2
Another assay concerns MDA-MB-468. Briefly: MTT proliferation assay, MDA-MB-468. Particulars: Table 2, Breast, MDA-MB-468, 120 hrs of exposure. Type of assay: cell-based, human. On the procedure:
The human gastric cancer cell line AGS (CRL-1739) was cultured in Hams F-12K (Kaighans modification) medium containing 2 mM L-glutamine, 2.5 g/L sodium bicarbonate and 2 mM sodium pyruvate. The human breast adenocarcinoma line MDA-MB-468 (HTB-132) was cultured in DMEM:F12 (1:1) medium containing 2.5 mM L-glutamine, 2.4 g/L sodium bicarbonate, supplemented with an additional 2 mM L-glutamine.
as §1, §2

For the next assay, the system named is A2780. Briefly: MTT proliferation assay, A2780. Particulars: Table 2, Ovarian, A2780, 120 hrs of exposure. It is filed as cell-based. On the procedure: as §1, §2
Assay [1] deals with A2780 ovarian cancer cells. Description: Combination with carboplatin, proliferation of A2780 cells. Type of assay: cell-based. Particulars: for enhancement of the anti-cancer effect of carboplatin: A2780, depending on exposure regimen (24 hr concurrent or sequential). On the procedure:
In vitro toxicity in normal and cancer cells. Cells were seeded in 96-well plates at an appropriate cell density as determined from growth kinetics analysis. Depending on the plating efficiency and lag phase of individual cell lines, cells were allowed to plate down prior to drug exposure. Intra-experimental single agent controls were included to ensure IC50 values obtained for each cell line matched previous IC50 determinations. Four analogue concentrations were employed in each analysis. Analogue concentrations used in each assay were chosen based on IC50 values, which formed the top concentration of analogue used. Subsequent concentrations were chosen based on simple ½ or 1/10 dilutions of the top analogue concentration employed (i.e. 2, 1, 0.5, 0.25 μM). Nine 1/10 serial dilutions of chemotherapeutic were employed with the top chemotherapeutic concentration being 50 μM.
For combined analysis, analogue concentrations were held constant through 1/10 serial dilutions of chemotherapeutic in growth medium (top chemotherapeutic concentration employed was 50 μM). Combined cultures were cultured for 5 days.
The sequence of administration effect of each agent on chemotherapeutic IC50 values was assessed by exposing plated cells to a single agent in sequence for 24 hr. To assess the isoflavonoid derivative→chemotherapeutic sequence, plated cells were first exposed to the appropriate analogue concentrations and incubated at 37° C. for 24 hr. Cells were washed with growth medium and then exposed to the appropriate chemotherapeutic concentrations and incubated for 24 hr. Cells were then washed and incubated for a further 3 days. To assess the chemotherapeutic→isoflavonoid derivative sequence, the procedure was reversed.
Cell proliferation was assessed after the addition of 20 μl of 3-4,5 dimethylthiazol-2,5-diphenyl tetrazolium bromide (MTT, 2.5 mg/ml in PBS, Sigma) for 3-4 hrs at 37° C. according to manufacturer's instructions. IC50 values were calculated from semi-log plots of % of control proliferation on the y-axis against log dose on the x-axis.
3-D model analysis of the cytotoxic interaction between drug A and drug B enables the representation of predicted inhibitory effect of two drugs in combination in 3 dimensions to reveal actual regions of synergy or antagonism. The 3D synergy plots are based on a theory of “Theoretical Additivity” (TA or […]) as outlined by Kanzawa et al. Theoretical Additivity was calculated from the cytotoxicities of drug A and drug B as monotherapies using the following formula which assumes the drugs are mutually exclusive inhibitors: […]
The TA is calculated for each combination of drug concentrations and subtracted from the observed experimental effect for each combination to give a measurement of synergistic or enhanced action.
Combination index (CI) analysis, which employs the median-effect principle correlating drug dose to cytotoxicity, was also employed to assess synergy. The median-effect equation is utilized to calculate the dose of a drug that inhibits “x” percent of cells (Chou and Talalay, 1984). D=Dm[fa/(1−fa)]^1/m
In vitro Assessment of Combination of Optically Active Compound 31 and Carboplatin. Combination studies employed both 24 hr concurrent exposure, and 24 hr sequential exposure (racemic compound 32→Carboplatin) regimens. In both studies, four analogue concentrations (0.25, 0.5, 1 and 5 μM) were held constant against titrated carboplatin. When 1 and 5 μM of compound 32 was assessed in combination with the lowest concentration of carboplatin employed in this study (0.4 μM), no IC50 for carboplatin was achieved due the high levels of cell kill observed (30-40% of control).

The subject of another assay is SKBR-3. Description: MTT proliferation assay, SKBR-3. Type of assay: cell-based, human. Particulars: Table 2, Breast, SKBR-3, 120 hrs of exposure. The procedure:
The human colorectal adenocarcinoma line HCT-116 (CCL-247) and the human breast adenocarcinoma line SK-BR-3 (HTB-30) were cultured in McCoy's 5a Medium (Invitrogen) containing 1.5 mM L-glutamine and 2.2 g/L sodium bicarbonate. The human colorectal adenocarcinoma line SW620 (CCL-227) was cultured in Leibovitz's L-15 Medium (Invitrogen) containing 2.05 mM L-glutamine.
as §1, §2

Structures are written as SMILES.

`Oc1ccc([C@H]2c3ccc(O)cc3OC[C@H]2c2ccc(O)cc2)cc1` (racemic) [Compound 32]: the IC50 with CP70 is 510 to 1500 nM; in the assay on MM2200, 510 to 1500 nM; with PC3, 510 to 1500 nM; in the assay with A2058, 150 to 500 nM; with MDA-MB-468 it was 510 to 1500 nM; with A2780 it was 510 to 1500 nM. This compound gave an IC50 in the assay on SKBR-3 of 510 to 1500 nM. The entries for the “enhancement of the anti-cancer effect of carboplatin” value in assay [1] (0.25 μM of compound) and in assay [1] (0.5 μM of compound) were 1.5-2 fold and 7-11 fold, respectively. Also, in assay [1] (1 and 5 μM of compound plus 0.4 μM carboplatin, A2780), the “cell kill level observed (no IC50 for carboplatin achieved)” value is on record as 30-40 % of control. For the same compound, the “compound concentration giving maximal activity enhancement with carboplatin” value in assay [1] (3D method of Kanzawa, 12.5 μM carboplatin, A2780) was 0.5 µM.

On to `Oc1ccc([C@@H]2c3ccc(O)cc3OC[C@@H]2c2ccc(O)cc2)cc1` [Compound 33], for which the concentration for half-maximal inhibition (IC50) was no less than 10000 nM in the assay with CP70 (120 h); no less than 10000 nM in the assay on MM2200; no less than 10000 nM in the assay on A2780 (Homo sapiens, A2780, 120 h); no less than 10000 nM with SKBR-3 (Homo sapiens, SK-BR-3, 120 h). In addition, the “activity enhancement in combination with carboplatin” value in assay [1] (A2780 cell line, 31 compared with compound 32) is recorded as “did not impart any activity enhancement or antagonistic effect”.

The term IC50 denotes the concentration needed to halve the response being measured. Higher therefore signals weaker potency.
